Patent publication US4948782A, “A method of promoting the growth of domestic animals with erythromycin derivative containing composition” (Kitasato Kenkyusho, priority 1987, dated 1990)
Read-outs that look alike come from different tables or passages of the source.

Experiments:
cockerels of broilers = test: Survival rate and growing rate of cockerels of broilers fed the compound in rye-rations for 14 days; assay type: in vivo, cockerels of broilers (Habbard); settings: for Gain (Ratio): control = 100.0; for Gain: mean
Method: The feeds prepared by adding 0, 1.0, 10.0 and 100.0 ppm of 8,9-anhydroerythromycin A 6,9-hemiketal propargyl chloride respectively to rye-rations, were given to 160 cockerels of broilers (Habbard) of day zero, as 10 cockerels/group×4 repeats/ section, and allowed to be taken freely and continuously for 14 days. The cockerels were positioned to be accommodated for each groups by the Latin square method in an electrically heated battery brooder (the inside thereof is heated at a temperature of 32° C.). The survival rate and the growing rate were measured at 7 and 14 days of age.
Experimental Example 2 was repeated except for changing the administration compound to ethyl-nor-8,9-anhydroerythromycin A 6,9-hemiketal. The result of measuring the survival rate and the growing rate in cockerals of broilers (Habbard) of day zero was shown in Table 8.

Clostridium perfringens = assay type: in vivo
Escherichia coli NIHJ = test: MIC, Escherichia coli NIHJ (EC); assay type: cell-based
[1] = test system: Klebsiella pneumoniae ATCC 10031; test: MIC, Klebsiella pneumoniae ATCC 10031 (KP); assay type: cell-based; settings: ATCC10031; Klebsiella pneumoniae ATCC 10031; read-out: MIC KP
Bacillus cereus IFO 3001 = test: MIC, Bacillus cereus IFO 3001 (BC); assay type: cell-based; settings: Bacillus cereus, IFO3001, Bacillus cereus IFO 3001; read-out: MIC BC
[2] = test system: Staphylococcus aureus ATCC 6538P; test: MIC, Staphylococcus aureus ATCC 6538P (SA(1)); assay type: cell-based; settings: Staphylococcus aureus, ATCC6538P, Staphylococcus aureus ATCC 6538P; read-out: MIC SA (1)
Excerpt: (§1) The minimum inhibitory concentrations (MIC: mcg/ml) of the erythromycin derivatives of the present invention and the control erythromycin derivative (*) as the known growth promoting agent on typical test bacteria are shown in the following Tables 1 to 5.
SA(1): Staphylococcus aureus ATCC 6538P

Bacillus subtilis = test: MIC, Bacillus subtilis (BS); assay type: cell-based; settings: read-out: MIC BS
[3] = test system: Staphylococcus aureus FDA 209P; test: MIC, Staphylococcus aureus FDA 209P (SA(2)); assay type: cell-based; settings: Staphylococcus aureus, FDA209P, Staphylococcus aureus FDA 209P; read-out: MIC SA (2)
Excerpt: as §1
SA(2): Staphylococcus aureus FDA 209P

## C#CC[N+](C)(C)[C@H]1C[C@@H](C)O[C@@H](O[C@@H]2[C@@H](C)[C@H](O[C@H]3C[C@@](C)(OC)[C@@H](O)[C@H](C)O3)[C@@H](C)C(=O)O[C@H](CC)[C@@](C)(O)[C@H](O)[C@@H](C)C3=C(C)C[C@@]2(C)O3)[C@@H]1O [8,9-anhydroerythromycin A 6,9-hemiketal propargyl chloride]
Cockerels of broilers; 1.0 ppm in feed, 0-7 days
  Survival rate: 97.5%
  Gain (Ratio): 105.7
  Gain: 84.1 g/cockerel
Cockerels of broilers; 1.0 ppm in feed, 0-14 days
  Survival rate: 97.5%
  Gain (Ratio): 105.3
  Gain: 258.2 g/cockerel
Cockerels of broilers; 10.0 ppm in feed, 0-7 days
  Survival rate: 100.0%
  Gain (Ratio): 105.0
  Gain: 83.5 g/cockerel
Cockerels of broilers; 10.0 ppm in feed, 0-14 days
  Survival rate: 100.0%
  Gain (Ratio): 103.7
  Gain: 254.3 g/cockerel
Cockerels of broilers; 100.0 ppm in feed, 0-7 days
  Survival rate: 100.0%
  Gain (Ratio): 111.4
  Gain: 88.6 g/cockerel
Cockerels of broilers; 100.0 ppm in feed, 0-14 days
  Survival rate: 100.0%
  Gain (Ratio): 107.4
  Gain: 263.3 g/cockerel
Clostridium perfringens; 1.0 ppm (section 2), day 0
  Number of Cl. perfringens: 2.0 log CFU/g
Clostridium perfringens; 1.0 ppm (section 2), day 7
  Number of Cl. perfringens: 6.1 log CFU/g
Clostridium perfringens; 10.0 ppm (section 3), day 0
  Number of Cl. perfringens: 2.0 log CFU/g
Clostridium perfringens; 10.0 ppm (section 3), day 7
  Number of Cl. perfringens: 4.9 log CFU/g
Clostridium perfringens; 100.0 ppm (section 4), day 0
  Number of Cl. perfringens: 2.0 log CFU/g
Clostridium perfringens; 100.0 ppm (section 4), day 7
  Number of Cl. perfringens: 6.2 log CFU/g

## CC[C@H]1OC(=O)[C@H](C)[C@@H](O[C@H]2C[C@@](C)(OC)[C@@H](O)[C@H](C)O2)[C@H](C)[C@@H](O[C@@H]2O[C@H](C)C[C@H]([N+](C)(C)CC)[C@H]2O)[C@@]2(C)CC(C)C3(O[C@@]1(C)[C@H](O)[C@H]3C)O2 (stereo partly drawn) [Compound 71]
Escherichia coli NIHJ
  MIC: > 100 µg/mL
[1]
  MIC: > 100 µg/mL
Bacillus cereus IFO 3001
  MIC: 100 µg/mL
[2]
  MIC: > 100 µg/mL
Bacillus subtilis
  MIC: 100 µg/mL
[3]
  MIC: > 100 µg/mL

## CCC[N+](C)(C)[C@H]1C[C@@H](C)O[C@@H](O[C@@H]2[C@@H](C)[C@H](O[C@H]3C[C@@](C)(OC)[C@@H](O)[C@H](C)O3)[C@@H](C)C(=O)O[C@H](CC)[C@@]3(C)OC4(O[C@]2(C)CC4C)[C@H](C)[C@H]3O)[C@@H]1O (stereo partly drawn) [Compound 72]
Escherichia coli NIHJ
  MIC: > 100 µg/mL
[1]
  MIC: > 100 µg/mL
Bacillus cereus IFO 3001
  MIC: > 100 µg/mL
[2]
  MIC: > 100 µg/mL
Bacillus subtilis
  MIC: > 100 µg/mL
[3]
  MIC: > 100 µg/mL

## CC[C@H]1OC(=O)[C@H](C)[C@@H](O[C@H]2C[C@@](C)(OC)[C@@H](O)[C@H](C)O2)[C@H](C)[C@@H](O[C@@H]2O[C@H](C)C[C@H]([N+](C)(C)Cc3ccccc3)[C@H]2O)[C@@]2(C)CC(C)C3(O[C@@]1(C)[C@H](O)[C@H]3C)O2 (stereo partly drawn) [Compound 73]
Escherichia coli NIHJ
  MIC: > 100 µg/mL
[1]
  MIC: > 100 µg/mL
Bacillus cereus IFO 3001
  MIC: > 100 µg/mL
[2]
  MIC: > 100 µg/mL
Bacillus subtilis
  MIC: > 100 µg/mL
[3]
  MIC: > 100 µg/mL

## CC[C@H]1OC(=O)[C@H](C)[C@@H](O[C@H]2C[C@@](C)(OC)[C@@H](O)[C@H](C)O2)[C@H](C)[C@@H](O[C@@H]2O[C@H](C)C[C@H]([N+](C)(C)CC)[C@H]2O)[C@@]2(C)CC(C)=C(O2)[C@H](C)[C@@H](O)C1C (stereo partly drawn) [Compound 74]
Escherichia coli NIHJ
  MIC: > 100 µg/mL
[1]
  MIC: > 100 µg/mL
Bacillus cereus IFO 3001
  MIC: 100 µg/mL
[2]
  MIC: 100 µg/mL
Bacillus subtilis
  MIC: > 100 µg/mL
[3]
  MIC: 100 µg/mL

## C#CC[N+](C)(C)[C@H]1C[C@@H](C)O[C@@H](O[C@@H]2[C@@H](C)[C@H](O[C@H]3C[C@@](C)(OC)[C@@H](O)[C@H](C)O3)[C@@H](C)C(=O)O[C@H](CC)C(C)[C@H](O)[C@@H](C)C3=C(C)C[C@@]2(C)O3)[C@@H]1O (stereo partly drawn) [Compound 75]
Escherichia coli NIHJ
  MIC: > 100 µg/mL
[1]
  MIC: > 100 µg/mL
Bacillus cereus IFO 3001
  MIC: 100 µg/mL
[2]
  MIC: 100 µg/mL
Bacillus subtilis
  MIC: 100 µg/mL
[3]
  MIC: 100 µg/mL

## CC[C@H]1OC(=O)[C@H](C)[C@@H](O[C@H]2C[C@@](C)(OC)[C@@H](O)[C@H](C)O2)[C@H](C)[C@@H](O[C@@H]2O[C@H](C)C[C@H]([N+](C)(C)CC)[C@H]2O)[C@](C)(O)C[C@@H](C)C(=O)[C@H](C)[C@@H](O)[C@]1(C)O [Compound 76]
Escherichia coli NIHJ
  MIC: > 100 µg/mL
[1]
  MIC: > 100 µg/mL
Bacillus cereus IFO 3001
  MIC: 6.25 µg/mL
[2]
  MIC: 6.25 µg/mL
Bacillus subtilis
  MIC: < 3.12 µg/mL
[3]
  MIC: 12.5 µg/mL

## C=CC[N+](C)(C)[C@H]1C[C@@H](C)O[C@@H](O[C@@H]2[C@@H](C)[C@H](O[C@H]3C[C@@](C)(OC)[C@@H](O)[C@H](C)O3)[C@@H](C)C(=O)O[C@H](CC)[C@@](C)(O)[C@H](O)[C@@H](C)C(=O)[C@H](C)C[C@@]2(C)O)[C@@H]1O [Compound 77]
Escherichia coli NIHJ
  MIC: > 100 µg/mL
[1]
  MIC: > 100 µg/mL
Bacillus cereus IFO 3001
  MIC: 12.5 µg/mL
[2]
  MIC: 25 µg/mL
Bacillus subtilis
  MIC: 12.5 µg/mL
[3]
  MIC: 50 µg/mL

## C#CC[N+](C)(C)[C@H]1C[C@@H](C)O[C@@H](O[C@@H]2[C@@H](C)[C@H](O[C@H]3C[C@@](C)(OC)[C@@H](O)[C@H](C)O3)[C@@H](C)C(=O)O[C@H](CC)[C@@](C)(O)[C@H](O)[C@@H](C)C(=O)[C@H](C)C[C@@]2(C)O)[C@@H]1O [Compound 78]
Escherichia coli NIHJ
  MIC: > 100 µg/mL
[1]
  MIC: > 100 µg/mL
Bacillus cereus IFO 3001
  MIC: 6.25 µg/mL
[2]
  MIC: 12.5 µg/mL
Bacillus subtilis
  MIC: 6.25 µg/mL
[3]
  MIC: 25 µg/mL

## CC[C@H]1OC(=O)[C@H](C)[C@@H](O[C@H]2C[C@@](C)(OC)[C@@H](O)[C@H](C)O2)[C@H](C)[C@@H](O[C@@H]2O[C@H](C)C[C@H](N(C)CC)[C@H]2O)[C@@]2(C)CC(C)=C(O2)[C@H](C)[C@@H](O)[C@]1(C)O [ethyl-nor-8,9-anhydroerythromycin A 6,9-hemiketal]
Cockerels of broilers; 1.0 ppm in feed, 0-7 days
  Survival rate: 97.5%
  Gain (Ratio): 103.1
  Gain: 85.7 g/cockerel
Cockerels of broilers; 1.0 ppm in feed, 0-14 days
  Survival rate: 97.5%
  Gain (Ratio): 106.8
  Gain: 263.3 g/cockerel
Cockerels of broilers; 10.0 ppm in feed, 0-7 days
  Survival rate: 97.5%
  Gain (Ratio): 98.3
  Gain: 81.7 g/cockerel
Cockerels of broilers; 10.0 ppm in feed, 0-14 days
  Survival rate: 95.0%
  Gain (Ratio): 102.6
  Gain: 253.1 g/cockerel
Cockerels of broilers; 100.0 ppm in feed, 0-7 days
  Survival rate: 100.0%
  Gain (Ratio): 104.3
  Gain: 86.7 g/cockerel
Cockerels of broilers; 100.0 ppm in feed, 0-14 days
  Survival rate: 100.0%
  Gain (Ratio): 105.4
  Gain: 259.8 g/cockerel
Clostridium perfringens; 1.0 ppm (section 2), day 0
  Number of Cl. perfringens: 7.03 log CFU/g
Clostridium perfringens; 1.0 ppm (section 2), day 7
  Number of Cl. perfringens: 7.20 log CFU/g
Clostridium perfringens; 10.0 ppm (section 3), day 0
  Number of Cl. perfringens: 6.83 log CFU/g
Clostridium perfringens; 10.0 ppm (section 3), day 7
  Number of Cl. perfringens: 7.54 log CFU/g
Clostridium perfringens; 100.0 ppm (section 4), day 0
  Number of Cl. perfringens: 6.59 log CFU/g
Clostridium perfringens; 100.0 ppm (section 4), day 7
  Number of Cl. perfringens: 7.17 log CFU/g
